Source: publication PMC11124822, “Discovery and Anticancer Screening of Novel Oxindole-Based Derivative Bearing Pyridyl Group as Potent and Selective Dual FLT3/CDK2 Kinase Inhibitor” (Pharmaceuticals, 2024)

Assays:
Assay in all cases: NCI-60 antiproliferative screen (SRB)
[1] = tested on: HL-60(TB); type: cell-based, human; conditions: Homo sapiens; 10 µM single dose, 48 h; HL-60(TB) (Leukemia); read-out: Growth inhibition (%)
[2] = tested on: K-562; type: cell-based, human; conditions: Homo sapiens, K562; 10 µM single dose, 48 h; K-562 (Leukemia); read-out: Growth inhibition (%)
[3] = tested on: RPMI-8226; type: cell-based, human; conditions: Homo sapiens; 10 µM single dose, 48 h; RPMI-8226 (Leukemia); read-out: Growth inhibition (%)
[4] = tested on: NCI-H23; type: cell-based, human; conditions: Homo sapiens; 10 µM single dose, 48 h; NCI-H23 (NSCLC); read-out: Growth inhibition (%)
[5] = tested on: NCI-H322M; type: cell-based, human; conditions: Homo sapiens; 10 µM single dose, 48 h; NCI-H322M (NSCLC); read-out: Growth inhibition (%)
[6] = tested on: NCI-H460; type: cell-based, human; conditions: Homo sapiens; 10 µM single dose, 48 h; NCI-H460 (NSCLC); read-out: Growth inhibition (%)
[7] = tested on: NCI-H522; type: cell-based, human; conditions: Homo sapiens; 10 µM single dose, 48 h; NCI-H522 (NSCLC); read-out: Growth inhibition (%)
[8] = tested on: COLO 205; type: cell-based, human; conditions: Homo sapiens; 10 µM single dose, 48 h; COLO 205 (Colon); read-out: Growth inhibition (%)
[9] = tested on: HCC-2998; type: cell-based, human; conditions: Homo sapiens; 10 µM single dose, 48 h; HCC-2998 (Colon); read-out: Growth inhibition (%)
[10] = tested on: HCT-15; type: cell-based, human; conditions: Homo sapiens; 10 µM single dose, 48 h; HCT-15 (Colon); read-out: Growth inhibition (%)
[11] = tested on: SW-620; type: cell-based, human; conditions: Homo sapiens; 10 µM single dose, 48 h; SW-620 (Colon); read-out: Growth inhibition (%)
[12] = tested on: SF-268; type: cell-based, human; conditions: Homo sapiens; 10 µM single dose, 48 h; SF-268 (CNS); read-out: Growth inhibition (%)
[13] = tested on: SF-539; type: cell-based, human; conditions: Homo sapiens; 10 µM single dose, 48 h; SF-539 (CNS); read-out: Growth inhibition (%)
[14] = tested on: MALME-3M; type: cell-based, human; conditions: Homo sapiens; 10 µM single dose, 48 h; MALME-3M (Melanoma); read-out: Growth inhibition (%)
[15] = tested on: M14; type: cell-based, human; conditions: Homo sapiens; 10 µM single dose, 48 h; M14 (Melanoma); read-out: Growth inhibition (%)
[16] = tested on: MDA-MB-435; type: cell-based, human; conditions: Homo sapiens; 10 µM single dose, 48 h; MDA-MB-435 (Melanoma); read-out: Growth inhibition (%)
[17] = tested on: SK-MEL-2; type: cell-based, human; conditions: Homo sapiens; 10 µM single dose, 48 h; SK-MEL-2 (Melanoma); read-out: Growth inhibition (%)
[18] = tested on: OVCAR-3; type: cell-based, human; conditions: Homo sapiens; 10 µM single dose, 48 h; OVCAR-3 (Ovarian); read-out: Growth inhibition (%)
[19] = tested on: OVCAR-5; type: cell-based, human; conditions: Homo sapiens; 10 µM single dose, 48 h; OVCAR-5 (Ovarian); read-out: Growth inhibition (%)
[20] = tested on: NCI/ADR-RES; type: cell-based, human; conditions: Homo sapiens; 10 µM single dose, 48 h; NCI/ADR-RES (Ovarian); read-out: Growth inhibition (%)
[21] = tested on: 786-0; type: cell-based, human; conditions: Homo sapiens; 10 µM single dose, 48 h; 786-0 (Renal); read-out: Growth inhibition (%)
[22] = tested on: A498; type: cell-based, human; conditions: Homo sapiens; 10 µM single dose, 48 h; A498 (Renal); read-out: Growth inhibition (%)
[23] = tested on: ACHN; type: cell-based, human; conditions: Homo sapiens; 10 µM single dose, 48 h; ACHN (Renal); read-out: Growth inhibition (%)
[24] = tested on: UO-31; type: cell-based, human; conditions: Homo sapiens; 10 µM single dose, 48 h; UO-31 (Renal); read-out: Growth inhibition (%)
[25] = tested on: DU-145; type: cell-based, human; conditions: Homo sapiens; 10 µM single dose, 48 h; DU-145 (Prostate); read-out: Growth inhibition (%)
[26] = tested on: MCF7; type: cell-based, human; conditions: Homo sapiens; 10 µM single dose, 48 h; MCF7 (Breast); read-out: Growth inhibition (%)
[27] = tested on: HS 578T; type: cell-based, human; conditions: Homo sapiens; 10 µM single dose, 48 h; HS 578T (Breast); read-out: Growth inhibition (%)
[28] = tested on: SR; conditions: Homo sapiens, 48 h, read-out: Growth inhibition (%)
Description: (§1) Anticancer activity was tested against 60 cancer cell lines (NCI-60) after 48h treatments with a single dosage of 10 μM of compounds by using sulforhodamine B assay [39] on the traditional 96-well platform. […] The human cancer cell lines of the NCI-60 panel are grown in RPMI 1640 medium supplemented with 5% FBS (fetal bovine serum) and 2 mM L-glutamine. […] For further analysis of promising compounds, five dose screens were performed against the NCI-60 panel. Drug treatments are performed in 5 doses using 10-fold or ½ log dose dilutions.

[29] = tested on: SNB-75; conditions: Homo sapiens, SNB-75, 48 h, read-out: Growth inhibition (%)
Description: as §1

[30] = tested on: OVCAR-4; conditions: Homo sapiens, OVCAR-4, 48 h, read-out: Growth inhibition (%)
[31] = tested on: BT-549; type: cell-based, human; conditions: Homo sapiens; 10 µM single dose, 48 h; BT-549 (Breast); read-out: Growth inhibition (%)

Row | SMILES | inhibition at 10 µM [1] [%] | inhibition at 10 µM [2] [%] | inhibition at 10 µM [3] [%] | inhibition at 10 µM [4] [%] | inhibition at 10 µM [6] [%] | inhibition at 10 µM [7] [%] | inhibition at 10 µM [8] [%] | inhibition at 10 µM [9] [%] | inhibition at 10 µM [10] [%] | inhibition at 10 µM [11] [%] | inhibition at 10 µM [12] [%] | inhibition at 10 µM [13] [%] | inhibition at 10 µM [15] [%] | inhibition at 10 µM [16] [%] | inhibition at 10 µM [17] [%] | inhibition at 10 µM [18] [%] | inhibition at 10 µM [19] [%] | inhibition at 10 µM [20] [%] | inhibition at 10 µM [21] [%] | inhibition at 10 µM [22] [%] | other results
1 | O=C1Nc2cc(Cl)ccc2C1=Cc1ccc(OCc2ccncc2)cc1 (mixture of isomers) [Compound 5p, (E/Z)-6-Chloro-3-[4-(pyridin-4-ylmethoxy)benzylidene]indolin-2-one] | 52.4 | 59.1 | 74.9 | 57.2 | 36.8 | 45.2 | 39.7 | 20.1 | 76.9 | 49.5 | 16.7 | 94.2 | 16.9 | 29.2 | 27.6 | 53 | -29.4 | 59.3 | 23.9 | -1.39 | inhibition at 10 µM [5]: 22.5%; inhibition at 10 µM [14]: 12.5%; inhibition at 10 µM [23]: 34%; inhibition at 10 µM [24]: 49%; inhibition at 10 µM [25]: 29.4%; inhibition at 10 µM [26]: 71.6%; inhibition at 10 µM [27]: 35%; inhibition at 10 µM [28]: 72.6%; inhibition at 10 µM [29]: 14.9%; inhibition at 10 µM [30]: 31.8%
2 | O=C1Nc2ccc(Cl)cc2C1=Cc1ccc(OCc2cccnc2)cc1 (mixture of isomers) [Compound 5k, (E/Z)-5-Chloro-3-[4-(pyridin-3-ylmethoxy)benzylidene] indolin-2-one] | 14.8 | 38.8 | 29.7 | 16.7 | 14.3 | 19.8 | 5.66 | -9.21 | 46.5 | 2.62 | 5.1 | 20.2 | 12.2 | 29.3 | 0.36 | -10.9 | -34.5 | 26 | 1.47 | -31.6 | inhibition at 10 µM [23]: 16.4%; inhibition at 10 µM [25]: 0.75%; inhibition at 10 µM [26]: 55.5%; inhibition at 10 µM [27]: 3.67%; inhibition at 10 µM [31]: 14.5%; inhibition at 10 µM [28]: 66.1%; inhibition at 10 µM [29]: -10.2%; inhibition at 10 µM [30]: 21.2%
3 | O=C1Nc2ccccc2C1=Cc1ccc(OCc2cccnc2)cc1 (mixture of isomers) [Compound 5i, (E/Z)-3-[4-(Pyridin-3-ylmethoxy)benzylidene]indolin-2-one] | 49.9 | 75.9 | 45.4 | 42.4 | 21.7 | 49.9 | 26.1 | -2.08 | 60.5 | 19.9 | -19.6 | 36.2 | 37.6 | 60.9 | 24.1 | -9.24 | -27.6 | 55 | 17.2 | -17.8 | inhibition at 10 µM [23]: 37.5%; inhibition at 10 µM [25]: 39.8%; inhibition at 10 µM [26]: 58%; inhibition at 10 µM [27]: 17.6%; inhibition at 10 µM [31]: 53.2%; inhibition at 10 µM [28]: 72%; inhibition at 10 µM [29]: -1.11%; inhibition at 10 µM [30]: 37.8%
4 | O=C1Nc2ccc(F)cc2C1=Cc1ccc(OCc2cccnc2)cc1 (mixture of isomers) [Compound 5j, (E/Z)-5-Fluoro-3-[4-(pyridin-3-ylmethoxy)benzylidene]indolin-2-one] | 81.7 | 86.1 | 61.2 | 58.2 | 53.9 | 89.5 | 46.1 | 23.4 | 84.8 | 70.1 | 11.1 | 63.3 | 67.1 | 98.3 | 50.4 | 9.05 | -11.2 | 85.6 | 24.2 | -29.1 | inhibition at 10 µM [23]: 51.8%; inhibition at 10 µM [25]: 46.1%; inhibition at 10 µM [26]: 91%; inhibition at 10 µM [27]: 37.4%; inhibition at 10 µM [31]: 65.7%; inhibition at 10 µM [28]: 73%; inhibition at 10 µM [29]: -5.67%; inhibition at 10 µM [30]: 47.2%
5 | O=C1Nc2ccc(F)cc2C1=Cc1ccc(OCc2ccccn2)cc1 (mixture of isomers) [Compound 5f, (E/Z)-5-fluoro-3-[4-(pyridin-2-ylmethoxy)benzylidene]indolin-2-one] | 13.9 | 14.6 | 19.4 | 28 | 11.6 | 68.1 | -10.8 | -20.2 | 10.7 | -2.79 | 29.9 | 47.7 | -5.09 | -2.77 | -3.45 | 8.17 | -9.45 | 21.7 | 16.6 | 32.5 | inhibition at 10 µM [5]: 3.29%; inhibition at 10 µM [14]: 7.24%; inhibition at 10 µM [23]: 23.8%; inhibition at 10 µM [24]: 26.5%; inhibition at 10 µM [25]: 7.73%; inhibition at 10 µM [26]: 37.8%; inhibition at 10 µM [27]: 21.9%; inhibition at 10 µM [31]: 13.2%; inhibition at 10 µM [29]: 10.2%; inhibition at 10 µM [30]: 5.38%
